Earlier results in patent US20100137442A2, “Sustained Release Particulate Oral Dosage Forms of (R)-Baclofen and Methods of Treatment” (XenoPort, Inc., priority 2008, published 2010).

Tests used:
[1] = oral baclofen
[2] = animal models
[3] = oral; 2 mg t.i.d equivalent to racemic baclofen 10 mg t.i.d.
[4] = dosed either orally or directly into the colon of a mammal

NCC(CC(=O)O)c1ccc(Cl)cc1 (racemic) [Baclofen, (±)-4-Amino-3-(4-chlorophenyl)butanoic acid]
elimination half-life [1]: 3 to 4 h
absorption following administration into the colon [2]: poorly absorbed

NC[C@H](CC(=O)O)c1ccc(Cl)cc1 [(R)-baclofen, R-(−)-baclofen]
potency relative to orally administered racemic baclofen [3]: about 5 fold

CC(C)C(=O)O[C@@H](OC(=O)NC[C@H](CC(=O)O)c1ccc(Cl)cc1)C(C)C [Compound (4), (3R)-4-{[(1S)-2-methyl-1-(2-methylpropanoyloxy)propoxy]carbonylamino}-3-(4-chlorophenyl)butanoic acid]
bioavailability as (R)-baclofen [4]: high bioavailability
